From patent publication US20230131899A1, “INHIBITORS OF MICROBIALLY INDUCED AMYLOID” (Axial Therapeutics, Inc., priority 2020, published 2023)
Read-outs that look alike come from different tables or passages of the source.

Target: T1, E. coli CsgA (Escherichia coli, UniProt P28307)
T1 construct: made in house; host or cells: E. coli NEB 3016 slyD::kan, pET11d
Test: In vitro ThioflavinT assay of CsgA aggregation (CsgA ThT Assay)
Format: biochemical
Settings: 1005 minutes; for remaining activity at 25 µM: compound 25 μM; for remaining activity at 100 µM: compound 100 μM
Outline: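 Purified C-terminal His-tagged CsgA, monomerised by desalting and 30-kDa filtration, at 2-20 μM with 20-40 μM ThT in 50 mM potassium phosphate pH 7.3, 1% DMSO, compounds 3.125-200 uM; room temperature, fluorescence (ex 438/em 495 nm) read every 15 min. Background-subtracted signal expressed as percent inhibition versus vehicle at 6-6.5 or 8-9 h, or as percent control AUC.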

[1] = read-out: CsgA ThT Assay (10 μM CsgA) % Control AUC at 1005 minutes, 25 μM (activity range), CsgA 10 μM, black plates, class symbol
[2] = read-out: CsgA ThT Assay (10 μM CsgA) % Control AUC at 1005 minutes, 25 μM, mean AUC as % of DMSO control, CsgA 10 μM, black plates
[3] = read-out: CsgA ThT Assay (10 μM CsgA) % Control AUC at 1005 minutes, 100 μM (activity range), CsgA 10 μM, black plates, class symbol
[4] = read-out: CsgA ThT Assay (10 μM CsgA) % Control AUC at 1005 minutes, 100 μM, mean AUC as % of DMSO control, CsgA 10 μM, black plates

T1 sequence (P28307 23-151): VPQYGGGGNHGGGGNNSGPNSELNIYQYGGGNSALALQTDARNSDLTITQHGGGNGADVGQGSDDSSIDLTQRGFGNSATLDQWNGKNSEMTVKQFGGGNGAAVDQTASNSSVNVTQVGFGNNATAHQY

SMILES | remaining activity at 25 µM [1] [%] | remaining activity at 25 µM [2] [%] | remaining activity at 100 µM [3] [%] | remaining activity at 100 µM [4] [%]
O=C(O)C1CSc2c(-c3cccc(C(F)(F)F)c3)c(Cc3cccc4ccccc34)cc(=O)n21 (single isomer, unassigned) [Compound 011a, 7-(naphthalen-1-ylmethyl)-5-oxo-8-(3-(trifluoromethyl)phenyl)-2,3-dihydro-5H-thiazolo[3,2-a]pyridine-3-carboxylic acid] | 31 to 60 | 47 | 31 to 60 | 41
O=C(O)[C@H]1CS(=O)(=O)c2c(-c3cccc(C(F)(F)F)c3)c(Cc3cccc4ccccc34)cc(=O)n21 (single isomer, unassigned) [Compound 010b, 7-(naphthalen-1-ylmethyl)-5-oxo-8-(3-(trifluoromethyl)phenyl)-2,3-dihydro-5H-thiazolo[3,2-a]pyridine-3-carboxylic acid 1,1-dioxide] | > 60 | 85 | 31 to 60 | 45
CCCN1CC(C(=O)O)n2c(c(-c3cccc(C(F)(F)F)c3)c(Cc3cccc4ccccc34)c(NC3CCOCC3)c2=O)S1(=O)=O (stereo not shown) [Compound 127, 8-(naphthalen-1-ylmethyl)-6-oxo-2-propyl-7-((tetrahydro-2H-pyran-4-yl)amino)-9-(3-(trifluoromethyl)phenyl)-3,4-dihydro-2H,6H-pyrido[1,2-e][1,2,5] thiadiazine-4-carboxylic acid 1,1-dioxide] | 11 to 31 | 26 | < 10 | 7
O=C(O)C1CN(CCCCO)S(=O)(=O)c2c(-c3cccc(C(F)(F)F)c3)c(Cc3cccc4ccccc34)c(NC3CCCC3)c(=O)n21 (stereo not shown) [Compound 121, 7-(cyclopentylamino)-2-(4-hydroxybutyl)-8-(naphthalen-1-ylmethyl)-6-oxo-9-(3-(trifluoromethyl)phenyl)-3,4-dihydro-2H,6H-pyrido[1,2-e][1,2,5]thiadiazine-4-carboxylic acid 1,1-dioxide] | 31 to 60 | 32 | 11 to 31 | 15
CC(C)N1CC(C(=O)O)n2c(c(-c3cccc(C(F)(F)F)c3)c(Cc3cccc4ccccc34)c(NC3CCCC3)c2=O)S1(=O)=O (stereo not shown) [Compound 123, 7-(cyclopentylamino)-2-isopropyl-8-(naphthalen-1-ylmethyl)-6-oxo-9-(3-(trifluoromethyl)phenyl)-3,4-dihydro-2H,6H-pyrido[1,2-e][1,2,5]thiadiazine-4-carboxylic acid 1,1-dioxide] | 11 to 31 | 26 | 11 to 31 | 25
Nc1c(Cc2cccc3ccccc23)c(-c2cccc(C(F)(F)F)c2)c2n(c1=O)C(C(=O)O)CS2(=O)=O (stereo not shown) [Compound 023, 6-amino-7-(naphthalen-1-ylmethyl)-5-oxo-8-(3-(trifluoromethyl)phenyl)-2,3-dihydro-5H-thiazolo[3,2-a]pyridine-3-carboxylic acid 1,1-dioxide] | > 60 | 73 | 31 to 60 | 34
CCc1c(Cc2cccc3ccccc23)c(-c2cccc(C(F)(F)F)c2)c2n(c1=O)C(C(=O)O)CN(C1CCCCC1)S2(=O)=O (stereo not shown) [Compound 116, 2-cyclohexyl-7-ethyl-8-(naphthalen-1-ylmethyl)-6-oxo-9-(3-(trifluoromethyl)phenyl)-3,4-dihydro-2H,6H-pyrido[1,2-e][1,2,5]thiadiazine-4-carboxylic acid 1,1-dioxide] | 11 to 31 | 30 | 31 to 60 | 38
